Measured values reported in patent US20120214862A1, “MODULATION OF FACTOR 7 EXPRESSION” (ISIS Pharmaceuticals, Inc., priority 2009, published 2012).
Like-named read-outs stand apart in the source and are kept apart here. e = 2'-O-(2-methoxyethyl) (MOE); d = 2'-deoxy (DNA)

Legend:
BALB/c mice = settings: mouse, in vivo
platelet factor-4 (PF-4) = assay: FeCl3 induced venous thrombosis (VT) model, real-time RT-PCR quantification of PF-4 in vena cava as measure of thrombus formation; type: in vivo, mouse; settings: for PF-4 (percent of PF-4 mRNA as compared to the PBS + FeCl3 control) / PF-4 (percentage compared to PBS controls): BALB/c mice; for PF-4 (percent of PF-4 mRNA as compared to the PBS + FeCl3 control): no Plavix; for PF-4 (percentage compared to PBS controls): vena cava
Experimental: Two control groups of BALB/c mice were treated with PBS, administered subcutaneously twice a week for 3 weeks. Thrombus formation was induced with FeCl3 in half of the mice while the rest of the mice were assayed for tail bleeding. […] Thrombus formation was induced with FeCl3 in all groups of the VT mice except the first control group.
In mice undergoing FeCl3 treatment, thrombus formation was induced by applying a piece of filter paper ([…]) pre-saturated with 10% FeCl3 solution directly on the vena cava. After 3 minutes of exposure, the filter paper was removed. Thirty minutes after the filter paper application, a fixed length of the vein containing the thrombus was dissected out for platelet analysis. Liver was collected for RNA analysis.
(§1) Real-time RT-PCR quantification of platelet factor-4 (PF-4) was used to quantify platelets in the vena cava as a measure of thrombus formation.
Six additional groups of BALB/c mice was treated with 0.5 mg/kg, 1 mg/kg, 2 mg·kg, 3 mg/kg, 4 mg/kg, or 5 mg/kg of warfarin, administered intraperioneally daily for 6 days. Four hours after the last dose of warfarin, mice were sacrificed. A control group of BALB/c mice were treated with PBS, administered subcutaneously twice a week for 3 weeks. Two days after the last dose of PBS, mice were anesthetized with 150 mg/kg ketamine mixed with 10 mg/kg xylazine administered by intraperitoneal injection. Thrombus formation was induced with FeCl3 in groups of mice except the first control group.
In mice undergoing FeCl3 treatment, thrombus formation was induced by applying a piece of filter paper (2×4 mm) pre-saturated with 10% FeCl3 solution directly on the vena cava. After 3 minutes of exposure, the filter paper was removed. Thirty minutes after the filter paper application, a fixed length of the vein containing the thrombus was dissected out for platelet analysis. Liver was collected for RNA analysis.
as §1
Thrombus formation was induced with FeCl3 in all of the mice except the first […] control groups. All mice were anesthetized with 150 mg/kg of ketamine mixed with 10 mg/kg of xylazine administered by intraperitoneal injection.
After 3 minutes of exposure, the filter paper was removed. Thirty minutes after the filter paper application, a fixed length of the vein containing the thrombus was dissected out for platelet analysis.
Real-time PCR quantification of PF-4 was used to quantify platelets in the vena cava as a measure of thrombus formation. […] Data is presented as percent of PF-4 mRNA as compared to the PBS+ FeCl3 control, […]

murine Factor 7 protein = assay: Plasma Factor 7 protein, Factor 7 chromogenic assay (Hyphen BioMed), BALB/c mice; type: in vivo, mouse; settings: for % inhibition of murine Factor 7 protein (plasma): relative to PBS control
Experimental: BALB/c mice were treated with ISIS 403102 ([…], target site 11336, incorporated herein as SEQ ID NO: 161). BALB/c mice were injected subcutaneously with 5 mg/kg, 10 mg/kg, 25 mg/kg, or 50 mg/kg of ISIS 403102 twice a week for 3 weeks. A control group of mice was injected subcutaneously with PBS twice a week for 3 weeks. After the treatment period, whole liver was collected for RNA and protein analysis, and plasma was collected for clotting analysis (PT/aPTT).
Plasma Factor 7 protein was measured using a Factor 7 chromogenic assay (Hyphen BioMed). […] Results are presented as percent inhibition of Factor 7, relative to control.

[1] = test system: extrinsic pathway of blood coagulation; assay: Prothrombin Time (PT) in platelet poor plasma of treated mice, reported as INR; type: in vivo, mouse
Experimental: Prothrombin Time (PT) and Activated Partial Thromboplastin Time (aPTT) were measured using platelet poor plasma (PPP) from mice treated with ISIS 403102. PT and aPTT values provided in Table 20 are reported as International Normalized Ratio (INR) values. INR values for PT and aPTT were determined by dividing the PT or aPTT value for the experimental group by the PT or aPTT for the PBS treated group. This ratio was then raised to the power of the International Sensitivity Index (ISI) of the tissue factor used.
Prothrombin Time (PT) and Activated Partial Thromboplastin Time (aPTT) were measured using platelet poor plasma (PPP) from mice treated with ISIS 403102. PT and aPTT values provided in Table 22 are reported as International Normalized Ratio (INR) values. INR values for PT and aPTT were determined by dividing the PT or aPTT value for the experimental group (i.e. 50 mg/kg treatment with ISIS 403102) by the PT or aPTT for the PBS treated group. This ratio was then raised to the power of the International Sensitivity Index (ISI) of the tissue factor used.
Prothrombin Time (PT) and Activated Partial Thromboplastin Time (aPTT) were measured using platelet poor plasma (PPP) from mice treated with ISIS 403102. PT and aPTT values provided in Table 24 are reported as International Normalized Ratio (INR) values. INR values for PT and aPTT were determined by dividing the PT or aPTT value for the experimental group (i.e. 50 mg/kg treatment with ISIS 403102) by the PT or aPTT for the PBS treated group. This ratio was then raised to the power of the International Sensitivity Index (ISI) of the tissue factor used.

CCATAGAACAGCTTCACAGG (sugars from the 5' end e5 d10 e5, backbone and methylation of C not given here) [ISIS 403102]
amount of bleeding in comparison to PBS treated mice (BALB/c mice): slight decrease in the amount of bleeding
bleeding as compared to PBS control mice (BALB/c mice): did not significantly affect bleeding
Blood (BALB/c mice; sc, 25 mg/kg): 0.06 g
Blood (BALB/c mice; sc, 37.5 mg/kg): 0.06 g
Blood (BALB/c mice; sc, 40 mg/kg): 0.10 g
bleeding compared to PBS treated mice (BALB/c mice; sc, 40 mg/kg): less bleeding than PBS treated mice
Blood (BALB/c mice; sc, 50 mg/kg): 0.10 g
amount of bleeding in comparison to PBS treated mice (BALB/c mice; sc, 50 mg/kg): Bleeding was the same
PF-4 (percent of PF-4 mRNA as compared to the PBS + FeCl3 control) (platelet factor-4 (PF-4); with FeCl3, ISIS 403102 20 mg/kg s.c. twice a week for three weeks): 39%
PF-4 (percent of PF-4 mRNA as compared to the PBS + FeCl3 control) (platelet factor-4 (PF-4); without FeCl3, ISIS 403102 20 mg/kg s.c. twice a week for three weeks): 2%
PF-4 in comparison to the PBS control (platelet factor-4 (PF-4); Example 14, 25, 37.5 or 50 mg/kg sc twice a week for 3 weeks): reduction of PF-4
PF-4 in comparison to the PBS control (platelet factor-4 (PF-4); Example 16, dosages of 5 mg/kg and higher, sc twice a week for 3 weeks): dose-dependent reduction of PF-4
PF-4 (percentage compared to PBS controls) (platelet factor-4 (PF-4); FeCl3 (Example 16), 1 mg/kg s.c. twice a week for 3 weeks): 120%
PF-4 (percentage compared to PBS controls) (platelet factor-4 (PF-4); FeCl3 (Example 16), 3 mg/kg s.c. twice a week for 3 weeks): 112%
PF-4 (percentage compared to PBS controls) (platelet factor-4 (PF-4); FeCl3 (Example 16), 5 mg/kg s.c. twice a week for 3 weeks): 69%
PF-4 (percentage compared to PBS controls) (platelet factor-4 (PF-4); FeCl3 (Example 16), 10 mg/kg s.c. twice a week for 3 weeks): 22%
PF-4 (percentage compared to PBS controls) (platelet factor-4 (PF-4); FeCl3 (Example 16), 20 mg/kg s.c. twice a week for 3 weeks): 41%
PF-4 (percentage compared to PBS controls) (platelet factor-4 (PF-4); FeCl3 (Example 16), 40 mg/kg s.c. twice a week for 3 weeks): 38%
PF-4 (percentage compared to PBS controls) (platelet factor-4 (PF-4); FeCl3, 25 mg/kg s.c. twice a week for 3 weeks): 34%
PF-4 (percentage compared to PBS controls) (platelet factor-4 (PF-4); FeCl3, 37.5 mg/kg s.c. twice a week for 3 weeks): 24%
PF-4 (percentage compared to PBS controls) (platelet factor-4 (PF-4); FeCl3, 50 mg/kg s.c. twice a week for 3 weeks): 24%
% inhibition of murine Factor 7 protein (plasma) (murine Factor 7 protein; 5 mg/kg s.c. twice a week for 3 weeks): 71%
% inhibition of murine Factor 7 protein (plasma) (murine Factor 7 protein; 10 mg/kg s.c. twice a week for 3 weeks): 88%
% inhibition of murine Factor 7 protein (plasma) (murine Factor 7 protein; 25 mg/kg s.c. twice a week for 3 weeks): 99%
% inhibition of murine Factor 7 protein (plasma) (murine Factor 7 protein; 50 mg/kg s.c. twice a week for 3 weeks): 99%
reduction of murine Factor 7 protein over PBS control (murine Factor 7 protein; 5-50 mg/kg sc twice a week for 3 weeks, plasma): dose-dependent reduction
PT INR ([1]; BALB/c mice, 5 mg/kg s.c. twice a week for 3 weeks): 1.09
PT INR ([1]; BALB/c mice, 10 mg/kg s.c. twice a week for 3 weeks): 1.33
PT INR ([1]; BALB/c mice, 25 mg/kg s.c. twice a week for 3 weeks): 2.33
PT INR ([1]; BALB/c mice, 50 mg/kg s.c. twice a week for 3 weeks): 4.37
PT INR ([1]; BALB/c mice, 50 mg/kg, 1 dose, 1 day after last dose): 1.04
PT INR ([1]; BALB/c mice, 50 mg/kg, 1 dose, 3 days after last dose): 1.20
PT INR ([1]; BALB/c mice, 50 mg/kg, 2 doses, 3 days after last dose): 1.43
PT INR ([1]; BALB/c mice, 50 mg/kg, 4 doses, 3 days after last dose): 2.13
PT INR ([1]; BALB/c mice, 50 mg/kg, 6 doses, 2 days after last dose): 1.64
PT INR ([1]; BALB/c mice, 50 mg/kg, 6 doses, 7 days after last dose): 2.08
PT INR ([1]; BALB/c mice, 50 mg/kg, 6 doses, 14 days after last dose): 1.37
PT INR ([1]; BALB/c mice, 50 mg/kg, 6 doses, 28 days after last dose): 0.96
PT INR ([1]; BALB/c mice, 50 mg/kg, 6 doses, 42 days after last dose): 1.00
PT INR ([1]; BALB/c mice, 50 mg/kg, 6 doses, 56 days after last dose): 0.99
PT INR ([1]; BALB/c mice, single dose 50 mg/kg, day 1): 1.11
PT INR ([1]; BALB/c mice, single dose 50 mg/kg, day 2): 1.64
PT INR ([1]; BALB/c mice, single dose 50 mg/kg, day 3): 1.81
PT INR ([1]; BALB/c mice, single dose 50 mg/kg, day 4): 1.97
PT INR ([1]; BALB/c mice, single dose 50 mg/kg, day 6): 1.59
PT INR ([1]; BALB/c mice, single dose 50 mg/kg, day 8): 1.55
PT INR ([1]; BALB/c mice, single dose 50 mg/kg, day 12): 1.30
PT INR ([1]; BALB/c mice, single dose 50 mg/kg, day 24): 1.12
PT INR ([1]; BALB/c mice, single dose 50 mg/kg, day 56): 1.10
PT compared to the control ([1]; Example 11, 5-50 mg/kg sc twice a week for 3 weeks): significantly prolonged
PT over time ([1]; Example 13, 6 doses, day 7 to day 56): PT decreased
PT INR ([1]; single dose 50 mg/kg, day 1): 1.11 INR
PT INR ([1]; single dose 50 mg/kg, day 4): 1.97 INR
PT INR ([1]; single dose 50 mg/kg, day 56): 1.10 INR
